Drawing on the NIST ThermoML archive (doi:10.1016/j.tca.2009.06.018), this text covers Normal melting temperature for six compounds.

± gives the expanded uncertainty stated by the source.

The conditions of this data set: Crystal; DTA.
As for `CCCCCCCCCC(=O)O` [decanoic acid], the Normal melting temperature amounted to 32.31 ± 0.5 °C. As to `CCCCCCCCCCCC(=O)O` [dodecanoic acid], the Normal melting temperature stood at 44.92 ± 0.5 °C. Regarding `CCCCCCCCCCCCCCCC(=O)O` [hexadecanoic acid], the Normal melting temperature was determined as 64.07 ± 0.5 °C. Take `CCCCCCCCCCCCCCCCCC(=O)O` [octadecanoic acid]: the Normal melting temperature was determined as 70.83 ± 0.5 °C. Turning to `CCCCCCCC(=O)O` [octanoic acid], the Normal melting temperature was found to be 16.48 ± 0.5 °C. Turning to `CCCCCCCCCCCCCC(=O)O` [tetradecanoic acid], the Normal melting temperature turned out to be 55.73 ± 0.5 °C.
